The values below are quoted from earlier work in PMC10608500 (Marine Drugs, 2023).

Where two headings read alike, the source gives them in different places.

Data set [1] deals with U937 human histiocytic lymphoma cells. Also on record: method as in PMID 34986303. Conditions: read-out: IC50 against U937 cells.
Data set [2] deals with CCRF-CEM human T lymphoblast cells. Also on record: method as in PMID 34986303. Particulars: read-out: IC50 against CCRF-CEM cells.
For data set [3] the following is noted: Table 1.
Setting [4] is: from Oscillatoria sp., ref Li, T et al. 20.
Where [5] appears, read: from Oscillatoria agardhii, ref Murakami, M et al. 21.

In general, IC50 refers to the concentration that inhibits the measured activity by half. For amantamide A, the IC50 in data set [1] was 6.1 µM; in data set [2], 8.3 µM. Further, the Activities entry in data set [3] (setting [4]) is “CXCR7 agonist, cytotoxic”.
Turning to amantamide B, the IC50 was 7.3 µM in data set [1] and 5.6 µM in data set [2]. Besides, the Activities entry in data set [3] (setting [4]) was “CXCR7 agonist, cytotoxic”.
In the case of heptavalinamide A, the Activities result in data set [3] (from Symploca sp., ref Suo, R et. al. 19) is reported as “cytotoxic”.
prenylagaramide A: the Activities result in data set [3] (setting [5]) is given as “no biological activity”.
As to prenylagaramide B, in data set [3] (setting [5]), the Activities entry was “no biological activity”.
For sepiatocin, in data set [3] (from Sepia officinalis, ref Henry, J et al. 22), the Activities entry is given as “muscle contractile activity modulator (sepiatocin)”.
